The values that follow come from patent US8633204B2 (Pfizer Inc., priority 2006, dated 2014).

pIC50: −log10 of the molar value.

In experiment [1] the target is PI3-Kα (Mus musculus (Mouse), UniProt P42337). Put plainly: PI3-Kα Biochemical Assay (fluorescence polarization kinase assay). How it is done:
Compounds of the present invention were evaluated for potency against PI3-Kα using an in vitro kinase assay. PI3-Kα activity is measured in vitro by determining the level of phosphorylation of the substrate PI(4,5)P2. The formation of product PI(3,4,5)P3 is monitored by binding to the Grip1 PH domain in a ligand displacement fluorescence polarization (FP) assay, in which the TAMRA-labeled PI(3,4,5)P3 complexed with Grip1 PH domain is displaced by PI(3,4,5)P3 formed in the PI3-Kα reaction resulting in a decrease in FP signal. Mouse PI3-Kα P110 and P85 subunits were co-expressed in insect cells and co-purified to homogeneity. PI(4,5)P2 were obtained from Cayman. TAMRA-labeled PI(3,4,5)P3 were from Echelon, Grip1 PH domain from Dundee and other reagents were from Sigma.
All assays were performed in a Corning solid black 96-well half area plate using LJL Analyst (Molecular Devices) at room temperature. The assay buffer contained 50 mM HEPES, pH 7.4, 150 mM NaCl, 5 mM DTT, and 0.05% CHAPS. Dry powder PI(4,5)P2 was dissolved in 50 mM TRIS, pH 8 to make 1 mM stock solution. The PI(4,5)P2 stock solution was then diluted in the assay buffer to 60 μM, and sonicated for 30 sec before use. To the assay plate, the following reagents were added in sequence: 10 μL of 60 μM PI(4,5)P2, 5 μL of 4 nM PI3-Kα, 2 μL of compound in 25% DMSO, 3 μL of mixture containing 200 μM ATP and 33 mM MgCl2. The final volume for the reaction was 20 μL. The reaction mixture was incubated at room temperature for 35 min. The reaction was then stopped by 20 μL of 20 mM EDTA. […] The FP signal was allowed to develop for 40 min before reading on a LJL analyst at excitation 535 nm and emission 580 nm.
The percentage of inhibition was calculated based on the following equation % inhibition=[1−(FPcompound−FPmax)/(FPmin−FPmax)]×100, where FPcompound is the FP reading at a given compound concentration, FPmin is the FP signal of the PI3-Kα reaction in the absence of a compound, and FPmax is the background FP signal in the absence of PI3-Kα and a compound. The IC50 was determined by fitting the FP signal vs. compound concentration to a sigmoidal dose response equation using GraphPad Prism curve fitting program.
For orientation: In fluorescence polarisation assays a small probe gives low polarisation when free and higher when bound to something large.

The subject of experiment [2] is PI3-K in BT20 cells (phosphorylation of AKT at serine 473). Put plainly: PI3-Kα Cellular Assay (AKT Ser473 phosphorylation ELISA in BT20 cells). The class given is cell-based, human. The conditions noted are these: Homo sapiens, BT-20, pAKT Ser473 ELISA, 1 hour incubation. How it is done:
Compounds of the present invention were evaluated for potency against PI3-K using a cellular assay as follows.
Healthy growing human breast cancer cells BT20 (PI3K mutated) are used for the assay. BT20 cells are grown in 10% FBS+GLN (1:100)+PS (1:100)+1 mM Sodium Pyruvate+0.1 mM Sodium Bicarbonate+Non-Essential Amino Acids Solution (1:100) MEM medium (MEM+all). […] The cells are re-suspended in 10% FBS MEM all and are centrifuged down at 1400 rpm for 5 minutes. The cells are re-suspended in 0.5% FBS MEM all and are counted on a cell counter. The cells are seeded at 25,000 cells/well in volume of 100 μL/well in 0.5% FBS MEM all in a 96 well flat-bottom plate. The negative control wells receive only 100 μL of 0.5% FBS MEM all medium without cells. The plate is incubated overnight in a cell culture incubator with 5% CO2 at 37° C.
On day 2, testing compounds are prepared in 0.5% FBS MEM all medium and serially diluted at 1:3 for 11 test concentrations. Each concentration of the compounds is tested in duplicate. The compound solutions are added at 25 μL/well to the corresponded wells in cell plate, and 25 μL/well of the vehicle (0.5% DMSO in 0.5% FBS MEM all) is added to the negative control wells (no cells) and the positive control wells (cells without compounds). The plate is incubated for 1 hour in a cell culture incubator with 5% CO2 at 37° C. After 1 hour of incubation, the medium is removed, 100 μL/well of cell lysis buffer is added into the cell plate, and shake for 15 minutes at room temperature. […] After 1 hour, empty the contents of the wells, wash the plate 4 times with the wash buffer, and add 100 μL of TMB substrate solution (catalog #T0440, Sigma) into each well, and incubate with gentle shaking at room temperature for […]. After 15 minutes of color development, add 100 μL of stop solution (1N hydrochloric acid) to each well, and read the plate at 450 nm on ELISA plate reader.
On the technique in general: In an ELISA, binding on a coated surface is turned into a signal by an enzyme label.

Sequence of PI3-Kα (P42337 whole entry, the tested form may be a part): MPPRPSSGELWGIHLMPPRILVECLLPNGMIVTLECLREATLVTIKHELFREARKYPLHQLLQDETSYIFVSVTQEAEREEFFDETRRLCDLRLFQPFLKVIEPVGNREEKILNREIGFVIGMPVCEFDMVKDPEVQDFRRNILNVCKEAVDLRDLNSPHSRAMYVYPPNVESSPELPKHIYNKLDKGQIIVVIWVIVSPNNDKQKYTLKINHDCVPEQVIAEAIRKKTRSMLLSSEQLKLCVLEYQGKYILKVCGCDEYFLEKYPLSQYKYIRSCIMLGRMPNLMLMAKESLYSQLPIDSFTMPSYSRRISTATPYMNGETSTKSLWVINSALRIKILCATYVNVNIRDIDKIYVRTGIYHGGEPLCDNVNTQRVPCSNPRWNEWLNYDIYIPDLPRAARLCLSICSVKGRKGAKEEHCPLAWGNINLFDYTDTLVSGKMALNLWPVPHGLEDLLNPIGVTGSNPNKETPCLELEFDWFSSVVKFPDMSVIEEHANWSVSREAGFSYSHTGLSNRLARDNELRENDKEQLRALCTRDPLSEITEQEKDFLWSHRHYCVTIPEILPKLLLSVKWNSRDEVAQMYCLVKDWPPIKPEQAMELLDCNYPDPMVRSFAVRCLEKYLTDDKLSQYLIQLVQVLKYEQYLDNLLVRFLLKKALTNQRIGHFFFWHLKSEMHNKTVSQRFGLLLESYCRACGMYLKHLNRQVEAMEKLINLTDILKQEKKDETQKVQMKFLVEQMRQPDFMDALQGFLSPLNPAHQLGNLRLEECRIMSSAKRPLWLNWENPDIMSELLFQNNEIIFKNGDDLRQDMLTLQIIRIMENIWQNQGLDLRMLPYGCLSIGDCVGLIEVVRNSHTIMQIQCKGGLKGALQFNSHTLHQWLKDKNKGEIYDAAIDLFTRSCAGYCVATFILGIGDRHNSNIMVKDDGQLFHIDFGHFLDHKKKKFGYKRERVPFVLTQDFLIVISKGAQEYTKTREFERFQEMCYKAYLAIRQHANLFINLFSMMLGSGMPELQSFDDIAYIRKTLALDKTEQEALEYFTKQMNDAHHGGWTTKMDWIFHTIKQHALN
Sequence of PI3-Kα (P26450 whole entry partner, the tested form may be a part): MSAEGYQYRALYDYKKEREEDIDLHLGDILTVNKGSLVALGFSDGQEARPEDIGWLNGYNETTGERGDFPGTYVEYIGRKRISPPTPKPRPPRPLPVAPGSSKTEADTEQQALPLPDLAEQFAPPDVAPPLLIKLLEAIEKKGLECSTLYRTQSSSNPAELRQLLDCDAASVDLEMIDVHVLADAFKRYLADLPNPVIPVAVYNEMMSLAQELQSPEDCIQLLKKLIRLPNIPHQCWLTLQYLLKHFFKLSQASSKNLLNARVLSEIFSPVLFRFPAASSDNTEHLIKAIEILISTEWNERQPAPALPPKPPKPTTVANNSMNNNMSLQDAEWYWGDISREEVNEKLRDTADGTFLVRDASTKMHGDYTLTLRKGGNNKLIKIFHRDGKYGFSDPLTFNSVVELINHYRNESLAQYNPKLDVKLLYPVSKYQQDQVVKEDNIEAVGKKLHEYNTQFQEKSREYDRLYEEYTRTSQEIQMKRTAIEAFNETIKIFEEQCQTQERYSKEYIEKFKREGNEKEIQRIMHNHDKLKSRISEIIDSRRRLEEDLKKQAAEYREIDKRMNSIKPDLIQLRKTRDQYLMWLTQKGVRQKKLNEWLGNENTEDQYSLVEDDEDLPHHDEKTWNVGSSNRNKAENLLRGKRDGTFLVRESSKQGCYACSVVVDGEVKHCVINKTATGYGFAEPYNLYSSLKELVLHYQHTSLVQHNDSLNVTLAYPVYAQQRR

In the case of `CNc1nc(C)c2cc(-c3cc(CN)ccc3F)c(=O)n(C3CCCC3)c2n1` [Compound 104, 6-(5-(Aminomethyl)-2-fluorophenyl)-8-cyclopentyl-4-methyl-2-(methylamino)pyrido[2,3-d]pyrimidin-7(8H)-one], testing at 10 µM in experiment [1] gave an inhibition of 43%. Also, the pIC50 – broadly, −log10 of the IC50, conventionally taken in molar units – in experiment [2] is 5.00.
As for `CNc1nc(C)c2cc(-c3cnn(CCO)c3)c(=O)n(C3CCCC3)c2n1` [Compound 105, 8-Cyclopentyl-6-(1-(2-hydroxyethyl)-1H-pyrazol-4-yl)-4-methyl-2-(methylamino)pyrido[2,3-d]pyrimidin-7(8H)-one], the pIC50 is 7.62 in experiment [1] and 6.63 in experiment [2].
The corresponding values for `Cc1nc(N)nc2c1cc(-c1cnn(CCO)c1)c(=O)n2C1CCCC1` [Compound 106, 2-Amino-8-cyclopentyl-6-(1-(2-hydroxyethyl)-1H-pyrazol-4-yl)-4-methylpyrido[2,3-d]pyrimidin-7(8H)-one] are 7.35 and 6.31.
Regarding `CNc1nc(C)c2cc(-c3cncnc3)c(=O)n(C3CCCC3)c2n1` [Compound 107, 8-Cyclopentyl-4-methyl-2-(methylamino)-6-(pyrimidin-5-yl)pyrido[2,3-d]pyrimidin-7(8H)-one], the pIC50 in experiment [1] is 7.64; in experiment [2], 6.52.
As for `CNc1nc(C)c2cc(-c3ccc(O)c(OC)c3)c(=O)n(C3CCCC3)c2n1` [Compound 108, 8-cyclopentyl-6-(4-hydroxy-3-methoxyphenyl)-4-methyl-2-(methylamino)pyrido[2,3-d]pyrimidin-7(8H)-one], the pIC50 in experiment [1] is 8.80; in experiment [2], 8.42. Further, the inhibition (usually how much of the control response was suppressed) at 10 µM in experiment [1] is 99%.
Consider `CNc1nc(C)c2cc(-c3ccc(OC)nc3)c(=O)n(C3CCC3)c2n1` [Compound 109, 8-Cyclobutyl-6-(6-methoxypyridin-3-yl)-4-methyl-2-(methylamino)pyrido[2,3-d]pyrimidin-7(8H)-one], for which the pIC50 in experiment [1] was 8.20; in experiment [2] it was 7.23. The compound further displayed an inhibition at 10 µM in experiment [1] of 99%.
Take `C=CCn1c(=O)c(-c2ccc(OC)nc2)cc2c(C)nc(NC)nc21` [Compound 110, 8-allyl-6-(6-methoxypyridin-3-yl)-4-methyl-2-(methylamino)pyrido[2,3-d]pyrimidin-7(8H)-one]: the pIC50 is 7.77 in experiment [1] and 6.97 in experiment [2].
For the compound `Cc1nc(N)nc2c1cc(-c1ccc(Cl)nc1)c(=O)n2C1CCCC1` [Compound 112, 2-amino-6-(6-chloropyridin-3-yl)-8-cyclopentyl-4-methylpyrido[2,3-d]pyrimidin-7(8H)-one], the pIC50 was 7.41 in experiment [1] and 7.13 in experiment [2].
In the case of `CNc1nc(C)c2cc(-c3ccc(OC)nc3)c(=O)n(C(C)C)c2n1` [Compound 113, 8-Isopropyl-6-(6-methoxypyridin-3-yl)-4-methyl-2-(methylamino)pyrido[2,3-c]pyrimidin-7(8H)-one], the results for the pIC50 in experiment [1] and in experiment [2] were 7.68 and 7.02, respectively.
For `Cc1nc(NCC(C)(C)O)nc2c1cc(-c1cccc(O)c1)c(=O)n2C1CCCC1` [Compound 114, 8-Cyclopentyl-2-(2-hydroxy-2-methylpropylamino)-6-(3-hydroxyphenyl)-4-methylpyrido[2,3-d]-pyrimidin-7(8H)-one], the pIC50 was 6.96 in experiment [1] and 5.93 in experiment [2].
The corresponding values for `CNc1nc(C)c2cc(-c3cnc4[nH]ccc4c3)c(=O)n(C3CCCC3)c2n1` [Compound 115, 8-cyclopentyl-4-methyl-2-(methylamino)-6-(1H-pyrrolo[2,3-b]pyridin-5-yl)pyrido[2,3-d]pyrimidin-7(8H)-one] are 9.12 and 8.42.
As to `COc1ccc(-c2cc3c(C)nc(NCC(C)(C)O)nc3n(C3CCCC3)c2=O)cn1` [Compound 116, 8-Cyclopentyl-2-(2-hydroxy-2-methylpropylamino)-6-(6-methoxypyridin-34)-4-methylpyrido[2,3-d]pyrimidin-7(8H)-one], the pIC50 was 6.08 in experiment [1] and 5.24 in experiment [2].
In experiment [1], `CCNc1nc(C)c2cc(CCC(=O)N(CC)CC)c(=O)n(C3CCCC3)c2n1` [Compound 117, 3-[8-cyclopentyl-2-(ethylamino)-methyl-7-oxo-7,8-dihydropyrido[2,3-d]pyrimidin-6-yl]-N,N-diethylpropanamide] displayed an inhibition at 10 µM of 32%. The same compound gave a pIC50 in experiment [2] of 5.00.
Regarding `CCNc1nc(C)c2cc(CCC(=O)Nc3ncc[nH]3)c(=O)n(C3CCCC3)c2n1` [Compound 119], the figures for the pIC50 in experiment [1] and in experiment [2] were 6.51 and 5.24, respectively.
For `CNc1nc(C)c2cc(/C=C/O)c(=O)n(C3CCCC3)c2n1` [Compound 120, (E)-8-cyclopentyl-6-(2-hydroxyvinyl)-4-methyl-2-(methylamino)pyrido[2,3-d]pyrimidin-7(8H)-one], in that order: 7.38 and 6.05.
As for `CCNc1nc(C)c2cc(CCC(=O)N(C)C)c(=O)n(C3CCCC3)c2n1` [Compound 121, 3-(8-Cyclopentyl-2-(ethylamino)-4-methyl-7-oxo-7,8-dihydropyrido[2,3-d]pyrimidin-6-yl)-N,N-dimethylpropanamide], the inhibition at 50 µM in experiment [1] (at 50 μM) amounted to 27%. Besides, the pIC50 in experiment [2] was 5.00.
For the compound `CNc1nc(C)c2cc(C(N)=O)c(=O)n(C3CCCC3)c2n1` [Compound 123, 8-Cyclopentyl-4-methyl-2-(methylamino)-7-oxo-7,8-dihydropyrido[2,3-d]pyrimidine-6-carboxamide], the results for the pIC50 in experiment [1] and in experiment [2] were 7.17 and 6.19, respectively.
For `CNc1nc(C)c2cc(-c3cn[nH]c3)c(=O)n(C3CCCC3)c2n1` [Compound 124, 8-cyclopentyl-4-methyl-2-(methylamino)-6-(1H-pyrazol-4-yl)pyrido[2,3-d]pyrimidin-7(8H)-one], in that order: 8.10 and 8.59.
As for `COc1ncccc1-c1cc2c(C)nc(N)nc2n(C2CCCC2)c1=O` [Compound 126], the figures for the pIC50 in experiment [1] and in experiment [2] were 6.07 and 5.26, respectively.
On to `Cc1nc(N)nc2c1cc(-c1cnc3[nH]ccc3c1)c(=O)n2C1CCCC1` [Compound 127, 2-amino-8-cyclopentyl-4-methyl-6-(1H-pyrrolo[2,3-b]pyridin-5-yl)pyrido[2,3-d]pyrimidin-7(8H)-one], for which the pIC50 in experiment [1] was 9.32; in experiment [2] it was 8.56.
With `CNc1nc(C)c2cc(-c3cccnc3OC)c(=O)n(C3CCCC3)c2n1` [Compound 128, 8-cyclopentyl-6-(2-methoxypyridin-3-yl)-4-methyl-2-(methylamino)pyrido[2,3-d]pyrimidin-7(8H)-one], the figures for the pIC50 in experiment [1] and in experiment [2] were 6.56 and 5.45, respectively.
For `CCNc1nc(C)c2cc(CCCO)c(=O)n(C3CCCC3)c2n1` [Compound 129, 8-Cyclopentyl-2-(ethylamino)-6-(3-hydroxypropyl)-4-methylpyrido[2,3-d]pyrimidin-7(8H)-one], the values for the pIC50 in experiment [1] and in experiment [2] were 8.40 and 5.56, respectively.
